Literature values, collected in US8697633B2, “Dissolution of arterial plaque” (AtheraNova Operations, Inc., priority 2005, dated 2014).

How the values were obtained:
[1] = system: atherosclerotic plaque; settings: dietary HDCA, relative to mice not provided HDCA
[2] = system: atherosclerotic plaque; settings: 40 mg/day

Q: Which “rate of formation of atherosclerotic plaque” value [1] does the source give for `C[C@H](CCC(=O)O)[C@H]1CC[C@H]2[C@@H]3C[C@H](O)[C@@H]4C[C@H](O)CC[C@]4(C)[C@H]3CC[C@]12C` [HDCA, hyodeoxycholic acid] here?
A: The value was “reduced rate of formation of atherosclerotic plaque”.

Q: For `CC(C)c1nc(N(C)S(C)(=O)=O)nc(-c2ccc(F)cc2)c1/C=C/[C@@H](O)C[C@@H](O)CC(=O)O` [rosuvastatin], which “modulation of LDL, HDL, and triglyceride levels” value [2] is on record?
A: The value was “particularly effective”.

Q: What about the “reduction of normalized total atheroma volume” value ([2]; after 2 years, SD=11.1) of the same molecule?
A: Its value is 6.7%.

Q: What about the “reduction of plaque volume in the most diseased segments of vessels” value ([2]; after 2 years, SD=13.7) of the same molecule?
A: The value was 8.5%.
